Where two headings read alike, the source gives them in different places.
Experiments:
Burkitt Lymphoma = test: Inhibition of primary tumor cell cultures (48 hours) vs NK1 receptor immunostaining (Example 1); type: cell-based; conditions: Homo sapiens, 1 micromolar, read-out: Percentage of inhibition of cell cultures
Experimental: (§1) Cell cultures. To obtain tumor cells from human primary tumors we used the method described in De Bari et al. (De Bari et al. 2001). Briefly, small pieces of the tumors were digested into a hyaluronidase solution (Sigma-Aldrich, USA) at a concentration of 1 mg/ml during 15 minutes at 37°C, and then they were treated with 6 mg/ml of collagenase type IV (Invitrogen) during 2 hours at 37°C. Consecutively, cells were washed, and resuspended in the DMEM culture medium with high concentration of glucose (Dulbecco's Modified Eagle's Medium, Invitrogen) supplemented with 1% of antibiotics-antimycotics (Invitrogen) and with 1% of sodium pyruvate (Invitrogen), and the cells were seeded in culture slides at a concentration of 10.000 cells per square centimeter. When cells reached confluence, the adherent cells were separated using sterile trypsin at 0,5% (Invitrogen) and they were used among passages 3 and 9. For the assays shown next, tumor cells were seeded on slides at a concentration of 25.000 cells per well. A total of 6 wells containing the tumor cells were used as survival control. […] All the cultures were kept during 48 hours and later on recollected for their analysis.
(§2) Immunohistochemistry techniques. The presence of NK1 receptors was also analyzed using immunohistochemistry techniques. Briefly, a sample of each of the cultures of the cell lines used in the present invention, was centrifuged (5 minutes at 1.500 rpm) and the pellet obtained was dehydrated using increasing concentrations of ethanol and, finally, xylol. Then, said dehydrated samples were embedded in paraffin, creating a block of cells. Such paraffin blocks were cut with a microtome at 5 microns thickness, and were placed on microscope slides adequate to perform immunohistochemistry techniques. Consecutively, they were de-paraffinized by immersing them in xylol, to be finally hydrated using a solution containing decreasing concentrations of ethanol, and finally submerged them into water. […] After this, the samples were left to cool down at room temperature for 10 minutes. The endogenous peroxidase activity was blocked with 3% peroxide of hydrogen for 30 minutes at room temperature. After washing the samples with 0.05 M of Tris buffer, they were incubated with 10% non-immune pork serum at for 30 minutes at room temperature. To analyze the expression of NK1 receptors, the cellular samples were incubated in the presence of anti-NK1 antibodies (S8305, Sigma-Aldrich) diluted 1:1000, overnight at 4°C. Afterwards, the samples were washed in Tris buffer 0.05 M at room temperature. The next step was the addition of Envision System-HRP (Dako) reagents for 30 minutes at room temperature. Then, the samples were washed again in Tris buffer 0.05 M and the immunoreactivity was visualized through light microscopy with a chromogenic solution containing 3,3'-Diaminobenzidine (DAB+; Dako, USA). To differentiate the cell nuclei, they were slightly stained with hematoxylin. As negative control, it was used samples not incubated with the primary antibody anti-NK1, which was replaced by non-immune serum. All the samples were evaluated.
(§3) To value the immunostaining in each of the cases six cuts were performed to be analyzed by the immunohistochemistry technique. In each of the six cuts, it was counted cells in 20 fields (magnification 400x) using an Olympus microscope (model CX31). In each field it was counted the total number of cells and the number of cells presenting immunostaining, calculating afterwards the percentage of cells which presented immunostaining.

[1] = tested on: Undifferentiated Pleomorphic Sarcoma (malignant fibrous histiocytoma grade 3); test: Inhibition of primary tumor cell cultures vs Kras mutation (Example 2); type: cell-based, human; conditions: Homo sapiens, Cases with Kras mutated; 100 micromolar; read-out: Percentage of inhibition of cell cultures
Experimental: as §1
(§4) In each case the presence or not of mutations in K-ras gene was determined.
(§5) To determine the existence of mutations in the K-ras gene DNA from cancer tumor cells was extracted from samples obtained from the different cancer tumor cells, using DNA extraction kits from Takara (Madison, WI, US) or Ambion (Huntingdon, Cambridgeshire, United Kingdom), following the manufacturer's instructions, and as it has been previously published (Di Fiore F, et al. 2007). Consecutively it was analyzed by sequencing the exon 2 of the KRAS gene, , by means of PCR amplification from previously extracted cancer tumor DNA, using the following sense primer (SEQ ID NO. 15): 5'-[sequence]-3' and anti-sense primer (SEQ ID NO. 16): 5'-[sequence]-3'. After the purification using the Qiagen extraction kit, the PCR products were sequenced using the Big Dye Terminator Kit V3.1 (Applied Biosystems, Foster City, CA, U.S.) and an ABI Prism 377 or 3100 DNA sequencer (Applied Biosystems). The presence of a heterozygous mutation in the KRAS gene in cancer tumor cells of the cultures was defined as the appearance of a mutant peak of a height of at least a third of the wild type. All the sequence analysis were executed at least twice in two independent PCR.
(§6) The percentages of inhibition are expressed in percentage of variation in relation to control ± standard deviation.

[2] = tested on: Malignant Fibrous Histiocytoma; test: Inhibition of primary tumor cell cultures (48 hours) vs NK1 receptor immunostaining (Example 1); type: cell-based; conditions: Homo sapiens, 1 micromolar, read-out: Percentage of inhibition of cell cultures
Experimental: as §1, §2, §3

[3] = tested on: Thyroid carcinoma (papillary carcinoma); test: Inhibition of primary tumor cell cultures vs Kras mutation (Example 2); type: cell-based, human; conditions: Homo sapiens, Cases with Kras mutated; 100 micromolar; read-out: Percentage of inhibition of cell cultures
Experimental: (§7) To obtain tumor cells from human primary tumors we used the method described in De Bari et al. (De Bari et al. 2001). Briefly, small pieces of the tumors were digested into a hyaluronidase solution (Sigma-Aldrich, USA) at a concentration of 1 mg/ml during 15 minutes at 37°C, and then they were treated with 6 mg/ml of collagenase type IV (Invitrogen) during 2 hours at 37°C. Consecutively, cells were washed, and resuspended in the DMEM culture medium with high concentration of glucose (Dulbecco's Modified Eagle's Medium, Invitrogen) supplemented with 1% of antibiotics-antimycotics (Invitrogen) and with 1% of sodium pyruvate (Invitrogen), and the cells were seeded in culture slides at a concentration of 10.000 cells per square centimeter. When cells reached confluence, the adherent cells were separated using sterile trypsin at 0,5% (Invitrogen) and they were used among passages 3 and 9. For the assays shown next, tumor cells were seeded on slides at a concentration of 25.000 cells per well. A total of 6 wells containing the tumor cells were used as survival control. […] All the cultures were kept during 48 hours and later on recollected for their analysis.
as §4, §5
(§8) The antibody against NK1 receptor (Table 16) was used at 1/50 concentration. The percentages of inhibition are expressed in percentage of variation in relation to control ± standard deviation.

[4] = tested on: Non Hodgkin Lymphoma B (diffuse B cell lymphoma); test: as above; type: cell-based, human; conditions: Homo sapiens, B-cell, Cases with Kras mutated; 100 micromolar; read-out: Percentage of inhibition of cell cultures
Experimental: as §1, §4, §5, §6

[5] = tested on: human primary tumor cells; test: Inhibition of primary tumor cell cultures vs absence or presence of ERK  protein (Example 3; tumor type per table line); type: cell-based; conditions: Non Hodgkin Lymphoma T (diffuse T cell lymphoma), 100 micromolar
[6] = tested on: Carcinoma of the uterine cervix; test: Inhibition of primary tumor cell cultures (48 hours) vs NK1 receptor immunostaining (Example 1); type: cell-based; conditions: Homo sapiens, 1 micromolar, read-out: Percentage of inhibition of cell cultures
Experimental: as §1, §2, §3

Prostate carcinoma = test: cells; conditions: Homo sapiens, 1 micromolar
Experimental: as §1, §2, §3

[7] = tested on: Lung carcinoma (small cell lung carcinoma); test: Inhibition of primary tumor cell cultures vs Kras mutation (Example 2); type: cell-based, human; conditions: Homo sapiens, Cases with Kras mutated; 100 micromolar; read-out: Percentage of inhibition of cell cultures
Experimental: as §7, §4, §5, §8

[8] = tested on: Ovarian carcinoma (Adenocarcinoma); test: as above; type: cell-based, human; conditions: Homo sapiens, Cases with Kras mutated; 100 micromolar; read-out: Percentage of inhibition of cell cultures
Experimental: (§9) Cell cultures. […] Briefly, small pieces of the tumors were digested into a hyaluronidase solution (Sigma-Aldrich, USA) at a concentration of 1 mg/ml during 15 minutes at 37°C, and then they were treated with 6 mg/ml of collagenase type IV (Invitrogen) during 2 hours at 37°C. Consecutively, cells were washed, and resuspended in the DMEM culture medium with high concentration of glucose (Dulbecco's Modified Eagle's Medium, Invitrogen) supplemented with 1% of antibiotics-antimycotics (Invitrogen) and with 1% of sodium pyruvate (Invitrogen), and the cells were seeded in culture slides at a concentration of 10.000 cells per square centimeter. When cells reached confluence, the adherent cells were separated using sterile trypsin at 0,5% (Invitrogen) and they were used among passages 3 and 9. For the assays shown next, tumor cells were seeded on slides at a concentration of 25.000 cells per well. A total of 6 wells containing the tumor cells were used as survival control. […] All the cultures were kept during 48 hours and later on recollected for their analysis.
as §4, §5, §8

[9] = tested on: Melanoma (Nodular Melanoma); test: as above; type: cell-based, human; conditions: Homo sapiens, Cases with Kras mutated; 100 micromolar; read-out: Percentage of inhibition of cell cultures
Experimental: as §1, §4, §5, §6

[10] = tested on: Pancreatic carcinoma (Adenocarcinoma); test: as above; type: cell-based, human; conditions: Homo sapiens, Cases with Kras mutated; 100 micromolar; read-out: Percentage of inhibition of cell cultures
Experimental: as §9, §4, §5, §8

Colon carcinoma = test: Inhibition of primary tumor cell cultures (48 hours) vs NK1 receptor immunostaining (Example 1); type: cell-based; conditions: Homo sapiens, 1 micromolar, read-out: Percentage of inhibition of cell cultures
Experimental: as §1, §2, §3

Non Hodgkin Lymphoma B = test: as above; type: cell-based; conditions: Homo sapiens, 1 micromolar, read-out: Percentage of inhibition of cell cultures
Experimental: as §1, §2, §3

[11] = tested on: human primary tumor cells; test: Inhibition of primary tumor cell cultures vs amplification of the gene encoding the NK1 receptor (Example 6; tumor type per table line); type: cell-based; conditions: Non Hodgkin Lymphoma T (diffuse T cell lymphoma); Cases with amplification of the gene that encodes for the NK1 receptor; 100 micromolar
Experimental: as §9
The presence or absence of the amplification of the gene encoding for the NK1 receptor was determined, and then the cells were cultured in the presence of several antagonists of the NK1 receptor.
For each case, the presence or absence of amplification of the gene encoding for the NK1 receptor was determined.
In order to determine the presence of the amplification (increase in the number of copies) of the gene encoding the NK1 receptor (TAC1R), it was used the comparative genomic hybridization technique (CGH Array). Firstly genomic DNA was extracted from each case. Later, it was performed the marking and hybridization of the DNA of each sample together with DNA of a commercial reference without genomic alterations (from masculine or feminine sex, depending on the gender of the patient from whom the samples were obtained). The Array is Sureprint G3 Human CGH Microarray from the company Agilent was used, with an average separation between probes of 5.3Kb and 4.6Kb for the genes RefSeq. The reading of the microarray was done with the DNA Microarray Scanner G2565CA from Agilent, at a resolution of 3 µm. The analysis of the results was performed with the software Cytogenomics v 2.0.6.0 from Agilent with ADM-2: 6.0; Centralization: ON (Threshold: 6.0, Bin size: 10); Fuzzy zero: ON; Aberration filters: ON (minProbes=5 and minAvgAbsLopRatio= 0,5); Feature Level Filters : ON. The genomic coordinates are coincident with the NCBI36genome (hg18). Cases were distributed in two groups: Group I for those cases without the amplification of the gene encoding the NK1 receptor (locus 2p13.1-p12), and Group II for those cases with amplification of the gene encoding the NK1receptor (locus 2p13.1-p12).
The antibody against NK1 receptor (Table 36) was used at 1/50 concentration. The percentages of inhibition are expressed in percentages of variation in relation to control ± standard deviation.

Fibrosarcoma = test: Inhibition of primary tumor cell cultures (48 hours) vs NK1 receptor immunostaining (Example 1); type: cell-based; conditions: Homo sapiens, 1 micromolar, read-out: Percentage of inhibition of cell cultures
Experimental: as §1, §2, §3

[12] = tested on: Thyroid carcinoma (folliculary type); test: as above; type: cell-based; conditions: Homo sapiens, 1 micromolar, read-out: Percentage of inhibition of cell cultures
Experimental: as §1, §2, §3

[13] = tested on: Gastric carcinoma (Adenocarcinoma); test: Inhibition of primary tumor cell cultures vs Kras mutation (Example 2); type: cell-based, human; conditions: Homo sapiens, Cases with Kras mutated; 100 micromolar; read-out: Percentage of inhibition of cell cultures
Experimental: as §9, §4, §5, §8

Pancreatic carcinoma = test: Inhibition of primary tumor cell cultures (48 hours) vs NK1 receptor immunostaining (Example 1); type: cell-based; conditions: Homo sapiens, 1 micromolar, read-out: Percentage of inhibition of cell cultures
Experimental: as §1, §2, §3

[14] = NK1 receptor immunostaining Group 1 (less than 20% of the cells)
[15] = NK1 receptor immunostaining Group 2 (20-80% of the cells)
[16] = NK1 receptor immunostaining Group 3 (more than 80% of the cells)
[17] = NK1 receptor immunostaining Intensity grade 1
[18] = NK1 receptor immunostaining Intensity grade 2
[19] = NK1 receptor immunostaining Intensity grade 3

C[C@@H](O[C@H]1OCCN(Cc2n[nH]c(=O)[nH]2)[C@H]1c1ccc(F)cc1)c1cc(C(F)(F)F)cc(C(F)(F)F)c1 [Aprepitant]
inhibition at 1 µM (Burkitt Lymphoma; [14]): 10 ± 2% | inhibition at 1 µM (Burkitt Lymphoma; [15]): 45 ± 6% | inhibition at 1 µM (Burkitt Lymphoma; [16]): 96 ± 4% | inhibition at 1 µM (Burkitt Lymphoma; [17]): 27 ± 5% | inhibition at 1 µM (Burkitt Lymphoma; [18]): 55 ± 3% | inhibition at 1 µM (Burkitt Lymphoma; [19]): 92 ± 5% | inhibition at 100 µM [1]: 24 ± 3% | inhibition at 1 µM [2, 14]: 11 ± 2% | inhibition at 1 µM [2, 15]: 47 ± 2% | inhibition at 1 µM [2, 16]: 95 ± 6% | inhibition at 1 µM [2, 17]: 28 ± 7% | inhibition at 1 µM [2, 18]: 56 ± 5% | inhibition at 1 µM [2, 19]: 94 ± 3% | inhibition at 100 µM [3]: 25 ± 4% | inhibition at 100 µM [4]: 27 ± 5% | Percentage of inhibition of cell cultures ([5]; cases with presence of ERK): 94±4 percentage | Percentage of inhibition of cell cultures ([5]; cases without presence of ERK): 23±3 percentage | inhibition at 1 µM [6, 14]: 10 ± 2% | inhibition at 1 µM [6, 15]: 48 ± 5% | inhibition at 1 µM [6, 16]: 95 ± 5% | inhibition at 1 µM [6, 17]: 27 ± 4% | inhibition at 1 µM [6, 18]: 56 ± 4% | inhibition at 1 µM [6, 19]: 95 ± 4% | inhibition at 1 µM (Prostate carcinoma; read-out: Percentage of inhibition of cell cultures, NK1 receptor immunostaining Group 1 (less than 20% of the cells)): 11 ± 3% | inhibition at 1 µM (Prostate carcinoma; read-out: Percentage of inhibition of cell cultures, NK1 receptor immunostaining Group 2 (20-80% of the cells)): 46 ± 6% | inhibition at 1 µM (Prostate carcinoma; read-out: Percentage of inhibition of cell cultures, NK1 receptor immunostaining Group 3 (more than 80% of the cells)): 95 ± 5% | inhibition at 1 µM (Prostate carcinoma; read-out: Percentage of inhibition of cell cultures, NK1 receptor immunostaining Intensity grade 1): 27 ± 5% | inhibition at 1 µM (Prostate carcinoma; read-out: Percentage of inhibition of cell cultures, NK1 receptor immunostaining Intensity grade 2): 58 ± 6% | inhibition at 1 µM (Prostate carcinoma; read-out: Percentage of inhibition of cell cultures, NK1 receptor immunostaining Intensity grade 3): 93 ± 7% | inhibition at 100 µM [7]: 22 ± 4% | inhibition at 100 µM [8]: 24 ± 5% | inhibition at 100 µM [9]: 26 ± 4% | inhibition at 100 µM [10]: 22 ± 4% | inhibition at 1 µM (Colon carcinoma; [14]): 11 ± 4% | inhibition at 1 µM (Colon carcinoma; [15]): 44 ± 2% | inhibition at 1 µM (Colon carcinoma; [16]): 95 ± 4% | inhibition at 1 µM (Colon carcinoma; [17]): 26 ± 6% | inhibition at 1 µM (Colon carcinoma; [18]): 56 ± 6% | inhibition at 1 µM (Colon carcinoma; [19]): 95 ± 5% | inhibition at 1 µM (Non Hodgkin Lymphoma B; [14]): 10 ± 2% | inhibition at 1 µM (Non Hodgkin Lymphoma B; [15]): 47 ± 4% | inhibition at 1 µM (Non Hodgkin Lymphoma B; [16]): 96 ± 5% | inhibition at 1 µM (Non Hodgkin Lymphoma B; [17]): 27 ± 5% | inhibition at 1 µM (Non Hodgkin Lymphoma B; [18]): 55 ± 5% | inhibition at 1 µM (Non Hodgkin Lymphoma B; [19]): 97 ± 6% | Percentage of inhibition of cell cultures [11]: 94±7 percentage | inhibition at 1 µM (Fibrosarcoma; [14]): 10 ± 3% | inhibition at 1 µM (Fibrosarcoma; [15]): 48 ± 3% | inhibition at 1 µM (Fibrosarcoma; [16]): 96 ± 5% | inhibition at 1 µM (Fibrosarcoma; [17]): 27 ± 6% | inhibition at 1 µM (Fibrosarcoma; [18]): 54 ± 5% | inhibition at 1 µM (Fibrosarcoma; [19]): 95 ± 5% | inhibition at 1 µM [12, 14]: 10 ± 2% | inhibition at 1 µM [12, 15]: 45 ± 2% | inhibition at 1 µM [12, 16]: 97 ± 5% | inhibition at 1 µM [12, 17]: 26 ± 6% | inhibition at 1 µM [12, 18]: 57 ± 5% | inhibition at 1 µM [12, 19]: 95 ± 5% | inhibition at 100 µM [13]: 24 ± 3% | inhibition at 1 µM (Pancreatic carcinoma; [14]): 12 ± 3% | inhibition at 1 µM (Pancreatic carcinoma; [15]): 47 ± 1% | inhibition at 1 µM (Pancreatic carcinoma; [16]): 94 ± 6% | inhibition at 1 µM (Pancreatic carcinoma; [17]): 27 ± 7% | inhibition at 1 µM (Pancreatic carcinoma; [18]): 56 ± 5% | inhibition at 1 µM (Pancreatic carcinoma; [19]): 94 ± 3%

— EP2966448B1, “METHOD FOR THE PREDICTION OR PROGNOSIS OF THE RESPONSE OF A HUMAN SUBJECT SUFFERING FROM CANCER TO TREATMENT WITH AN ANTAGONIST OF THE NK1 RECEPTOR” (priority 2013, dated 2014)
